The text below walks through data of patent US7576128B2 (priority 2004, dated 2009).

Numbering of substitutions follows the chain as printed. Read-outs that look alike come from different tables or passages of the source.

The target of test [1] is T1, hAR (human androgen receptor) (Homo sapiens, UniProt P10275).
T1 construct: made in house; host or cells: baculovirus/Sf9 insect cells
T1 sequence (P10275 1-920): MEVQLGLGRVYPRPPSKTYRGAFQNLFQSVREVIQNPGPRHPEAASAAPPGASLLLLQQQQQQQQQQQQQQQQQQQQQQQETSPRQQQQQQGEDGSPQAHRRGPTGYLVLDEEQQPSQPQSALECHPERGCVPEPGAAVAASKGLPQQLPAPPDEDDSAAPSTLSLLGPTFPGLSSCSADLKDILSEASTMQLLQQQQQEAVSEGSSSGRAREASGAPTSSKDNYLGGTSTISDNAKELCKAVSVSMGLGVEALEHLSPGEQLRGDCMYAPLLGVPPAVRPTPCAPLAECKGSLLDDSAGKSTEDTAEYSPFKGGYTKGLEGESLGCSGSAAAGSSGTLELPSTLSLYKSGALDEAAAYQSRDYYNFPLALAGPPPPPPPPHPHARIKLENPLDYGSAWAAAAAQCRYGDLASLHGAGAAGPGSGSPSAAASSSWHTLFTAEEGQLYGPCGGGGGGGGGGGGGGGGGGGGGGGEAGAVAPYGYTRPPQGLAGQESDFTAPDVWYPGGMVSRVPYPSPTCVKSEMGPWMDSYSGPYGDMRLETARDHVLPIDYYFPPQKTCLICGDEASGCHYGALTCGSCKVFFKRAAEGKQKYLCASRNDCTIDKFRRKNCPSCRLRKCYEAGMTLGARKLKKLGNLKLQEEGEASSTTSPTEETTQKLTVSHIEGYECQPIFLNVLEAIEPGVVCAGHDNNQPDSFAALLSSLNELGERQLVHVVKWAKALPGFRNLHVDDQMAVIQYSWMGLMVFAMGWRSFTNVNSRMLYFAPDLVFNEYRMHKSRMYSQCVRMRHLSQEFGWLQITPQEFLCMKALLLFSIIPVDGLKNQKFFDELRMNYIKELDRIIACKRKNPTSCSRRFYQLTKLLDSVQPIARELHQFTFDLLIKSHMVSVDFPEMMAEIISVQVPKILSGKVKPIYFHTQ
In words: Competitive binding analysis on baculovirus/Sf9 generated hAR extracts with 3H-DHT tracer. How it is done: The description below describes how the assay was carried out.
Competitive binding analysis was performed on baculovirus/Sf9 generated hAR extracts in the presence or absence of different concentrations of test agent and a fixed concentration of ^3H-dihydrotestosterone (^3H-DHT) as tracer. This binding assay method is a modification of a protocol previously described (Liao S., et. al. J. Steroid Biochem. 20:11-17 1984). Briefly, progressively decreasing concentrations of compounds are incubated in the presence of hAR extract (Chang et al. P.N.A.S. Vol. 89, pp. 5546-5950,1992), hydroxylapatite, and 1 nM ^3 H-DHT for one hour at 4° C. Subsequently, the binding reactions are washed three times to completely remove excess unbound ^3 H-DHT. hAR bound ^3H-DHT levels are determined in the presence of compounds (=i.e competitive binding) and compared to levels bound when no competitor is present (=i.e. maximum binding). Compound binding affinity to the hAR is expressed as the concentration of compound at which one half of the maximum binding is inhibited.

A further test addresses T2, androgen receptor (Homo sapiens, UniProt P10275).
T2 sequence (P10275 1-920 Q868H): T1 sequence (P10275 1-920) with Q868H
Briefly: AR antagonist cell assay, MDA-MB453-MMTV clone 54-19 luciferase reporter. The settings on record: MDA-MB453-MMTV clone 54-19, 100 pM DHT, 17 hr; mean of multiple tests; read-out: AR Cell IC50. It is filed as cell-based. The procedure: The compounds ability to antagonize the effects of androgen on the androgen receptor were determined in a whole cell assay as described immediately below.
This cell line is a stable transfected cell line with MDA-MB453 cell background (a human breast tumor cell line expressing androgen receptor). A MMTV minimal promoter containing ARE was first cloned in front of a firefly luciferase reporter gene. Then the cascade was cloned into transfection vector pUV120puro. Electroporation method was used for transfecting MDA-MB-453 cell. Puromycin resistant stable cell line was selected.
• 1. Cells are maintained in culture medium, splitting cells when they reach 80-90% confluence • 2. To test compounds, 10,000 cells/well are plated to opaque 96 cell culture plate in 100 ul/well plating medium, culture for overnight at 37° C. in cell culture incubator • 3. Carefully remove plating medium, then add 80 ul/well of pre-warmed assay medium, add 10 ul/well testing compound (final concentration at) 1000 nM, 200 nM, 40 nM, 8 nM, 1.6 nM, and 0.32 nM), incubate at 37° C. for 30 minutes • 4. Add 10 ul/well freshly prepared DHT (final concentration at 100 pM) to each well, incubate at 37° C. for 17 hr (overnight) • 5.
The results are reported as the mean of multiple tests as described below (the numbers of tests are indicated in the footnote). N.D. denotes that the compound was not tested.
For orientation: Reporter assays use an easily measured gene product as a stand-in for the process of interest.

For `CCCCC(COc1ccc(C#N)c(C(F)(F)F)c1)C(C)O` (stereo not shown) [Example 15, 4-[2-(1-Hydroxy-ethyl)-hexyloxy]-2-tri-fluoromethyl-benzonitrile], the half-inhibitory concentration (IC50) in test [1] (hAR extract, 1 nM 3H-DHT, one hour at 4° C., mean of multiple tests, read-out: AR Binding IC50) was 210 nM; on androgen receptor it was 124 nM.

`C[C@H](O)CC[C@H](C)Oc1ccc(C#N)c(C(F)(F)F)c1` [Example 23, (1S,4S)-4-(4-Hy-droxy-1-methylpentyl-oxy)-2-tri-fluoromethyl-benzonitrile]: the half-maximal inhibitory concentration (IC50) was determined as 41 nM in test [1] and 132 nM at androgen receptor.

Usually IC50 stands for the midpoint of a concentration-inhibition curve.
